# Assay results published in article PMC10247784, “Physiological activation of human and mouse bitter taste receptors by bile acids” (Communications Biology, 2023).
# Target: T1, mouse Tas2r108 (Mus musculus, UniProt Q9JKT3)
# T1 construct: expressed in transfected cells; host or cells: HEK293T-Gα16gust44
# T1 sequence (Q9JKT3 1-297): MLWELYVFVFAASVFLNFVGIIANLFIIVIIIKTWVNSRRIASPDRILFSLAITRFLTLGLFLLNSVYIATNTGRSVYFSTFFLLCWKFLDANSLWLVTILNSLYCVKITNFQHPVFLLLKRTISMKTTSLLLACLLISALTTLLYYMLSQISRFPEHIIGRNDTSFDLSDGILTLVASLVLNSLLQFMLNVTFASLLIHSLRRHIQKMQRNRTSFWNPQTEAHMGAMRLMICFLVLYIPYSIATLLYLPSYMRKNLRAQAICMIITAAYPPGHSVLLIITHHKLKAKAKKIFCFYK
# Assay: Calcium imaging assay (FLIPR), HEK293T-Gα16gust44 cells transfected with mouse Tas2r108
# Assay type: cell-based
# Procedure: This set of bile acids was chosen because of their commercial availability in high purities, their diversity within the class of bile acids and their previous detection and quantitation in human blood. Stock solutions were prepared in DMSO.
# As basal growth medium for the HEK293T-Gα16gust44 cell line[17],[59] served Dulbecco’s modified eagle medium (DMEM) (Thermo Fisher Scientific, Darmstadt, Germany) supplemented with 10 % fetal bovine serum (Sigma-Aldrich, Steinheim, Germany), 2 mM L-glutamine (Sigma-Aldrich, Steinheim, Germany), 100 units/ml penicillin (Sigma Aldrich, Steinheim, Germany) and 100 µg/ml streptomycin (Sigma Aldrich, Steinheim, Germany). Growth conditions were 37 °C, 5 % CO2 and saturated air-humidity[60].
# HEK293T-Gα16gust44 cells were seeded on poly-D-lysine (10 µg/ml) coated 96-well plates to reach a confluence of 40-60 % the next day. For transient transfection 150 ng of plasmid DNA containing the receptor of interest and 0.3 µl lipofectamine 2000 (Thermo Fisher Scientific, Darmstadt, Germany) per well were used and transfection took place according to the manual of lipofectamine 2000. […] The empty vector DNA (mock) was transfected as negative control[14],[41].
# Cells were loaded using the calcium-sensitive fluorescent dye Fluo-4-AM (Abcam, Cambridge, Great Britain) in the presence of 2.5 mM probenecid (Sigma-Aldrich, Steinheim, Germany) the day after transfection[13],[41]. 1 h after loading, cells were washed with C1 buffer using a BioTek Cell Washer, incubated in the dark for half an hour and washed again. For automated agonist application and measurement of fluorescence changes, a FLIPR^TETRA device (Molecular Devices, San José, United States) was used. Viability of cells was tested by application of 100 nM Somatostatin 14 (Bachem, Bubendorf, Switzerland)[42].
# Measured data were negative control corrected by subtracting the signal of the mock-transfected cells and exported to Microsoft Excel using the FLIPR software ScreenWorks 4.2. In Microsoft Excel software, standardization of maximum fluorescence intensities to the basal fluorescence and normalization to the buffer-only control was done to calculate the relative fluorescence changes (ΔF/F).
# Initial screening experiments performed in duplicate wells were confirmed by at least one replication and representative traces were selected for display. All dose-response relationships were determined by three independent experiments (biological replicates) performed in duplicates (technical replicates). Threshold concentrations, defined as lowest substance concentrations leading to statistically significant elevated fluorescence changes in receptor-transfected cells compared with empty vector-transfected cells, were determined using SigmaPlot with Student’s t-test to evaluate statistical significance (p < 0.01).
structure (smiles),measurement,setting,value
"C[C@H](CCC(=O)O)[C@H]1CC[C@H]2[C@@H]3[C@H](O)C[C@@H]4C[C@H](O)CC[C@]4(C)[C@H]3C[C@H](O)[C@]12C [Cholic Acid, cholic acid]",RLU,Time 0 s,0 RLU
same,RLU,Time 2 s,6.931 RLU
same,RLU,Time 4 s,8.7879 RLU
same,RLU,Time 6 s,7.879 RLU
same,RLU,Time 8 s,1.863 RLU
same,RLU,Time 12 s,5.906 RLU
same,RLU,Time 14 s,3.861 RLU
same,RLU,Time 16 s,1.935 RLU
same,RLU,Time 18 s,-12.1137 RLU
same,RLU,Time 137.562 s,234.064 RLU
same,RLU,Time 143.562 s,197.377 RLU
same,RLU,Time 149.562 s,197.423 RLU
same,RLU,Time 155.562 s,210.935 RLU
same,RLU,Time 161.562 s,218.751 RLU
same,RLU,Time 167.562 s,184.375 RLU
same,RLU,Time 173.562 s,173.738 RLU
same,RLU,Time 179.562 s,175.807 RLU
same,RLU,Time 185.562 s,185.91 RLU
same,RLU,Time 191.562 s,162.947 RLU
same,RLU,Time 197.562 s,167.018 RLU
same,RLU,Time 203.562 s,164.056 RLU
same,RLU,Time 209.562 s,161.279 RLU
same,RLU,Time 215.562 s,154.776 RLU
same,RLU,Time 221.562 s,158.451 RLU
same,RLU,Time 227.562 s,139.492 RLU
same,RLU,Time 233.562 s,152.204 RLU
same,RLU,Time 239.562 s,73.7327 RLU
same,RLU,Time 245.562 s,142.097 RLU
same,RLU,Time 293.562 s,160.558 RLU
same,RLU,Time 299.562 s,159.088 RLU
same,RLU,Time 305.562 s,175.817 RLU
same,RLU,Time 311.562 s,159.088 RLU
same,RLU,Time 317.562 s,162.782 RLU
same,RLU,Time 323.562 s,182.257 RLU
same,RLU,Time 329.562 s,162.985 RLU
same,RLU,Time 335.562 s,195.196 RLU
same,RLU,Time 341.562 s,184.414 RLU
same,RLU,Time 347.562 s,175.395 RLU
same,RLU,Time 353.562 s,161.041 RLU
same,RLU,Time 359.562 s,176.226 RLU
same,Activation threshold concentration Tas2r108,p < 0.01 vs empty vector,100 µM
same,RLU,time 18.797 s,17.792 RLU
same,RLU,time 20.797 s,-23.002 RLU
same,RLU,time 22.797 s,-57.7927 RLU
same,RLU,time 24.797 s,-48.9168 RLU
same,RLU,time 26.797 s,-17.0044 RLU
same,RLU,time 28.797 s,22.9392 RLU
same,RLU,time 30.797 s,32.9758 RLU
same,RLU,time 32.797 s,53.0645 RLU
same,RLU,time 34.797 s,83.8222 RLU
same,RLU,time 36.797 s,93.8063 RLU
same,RLU,time 38.797 s,138.967 RLU
same,RLU,time 40.797 s,140.665 RLU
same,RLU,time 42.797 s,165.846 RLU
same,RLU,time 44.797 s,192.868 RLU
same,RLU,time 46.797 s,190.046 RLU
same,RLU,time 48.797 s,199.412 RLU
same,RLU,time 50.797 s,213.089 RLU
same,RLU,time 52.797 s,215.082 RLU
same,RLU,time 54.797 s,250.612 RLU
same,RLU,time 56.797 s,250.502 RLU
same,RLU,time 58.797 s,257.511 RLU
same,RLU,time 60.797 s,256.774 RLU
same,RLU,time 62.797 s,238.682 RLU
same,RLU,time 64.797 s,249.009 RLU
same,RLU,time 66.797 s,305.929 RLU
same,RLU,time 68.797 s,280.306 RLU
same,RLU,time 70.797 s,276.637 RLU
same,RLU,time 72.797 s,284.565 RLU
same,RLU,time 74.797 s,263.421 RLU
same,RLU,time 76.797 s,265 RLU
same,RLU,time 78.797 s,262.578 RLU
same,RLU,time 80.797 s,288.384 RLU
same,RLU,time 82.797 s,280.368 RLU
same,RLU,time 84.797 s,274.722 RLU
same,RLU,time 86.797 s,270.305 RLU
same,RLU,time 88.797 s,275.266 RLU
same,RLU,time 90.797 s,279.283 RLU
same,RLU,time 92.797 s,261.98 RLU
same,RLU,time 94.797 s,257.248 RLU
same,RLU,time 96.797 s,285.43 RLU
same,RLU,time 98.797 s,259.515 RLU
same,RLU,time 100.797 s,270.732 RLU
same,RLU,time 102.797 s,264.325 RLU
same,RLU,time 104.797 s,245.741 RLU
same,RLU,time 106.797 s,235.309 RLU
same,RLU,time 108.797 s,255.707 RLU
same,RLU,time 110.797 s,240.509 RLU
same,RLU,time 112.797 s,233.706 RLU
same,RLU,time 114.797 s,230.518 RLU
same,RLU,time 116.797 s,242.495 RLU
same,RLU,time 118.797 s,239.456 RLU
same,RLU,time 120.797 s,255.452 RLU
same,RLU,time 122.797 s,242.932 RLU
same,RLU,time 124.797 s,218.082 RLU
same,RLU,time 126.797 s,235.026 RLU
same,RLU,time 128.797 s,232.943 RLU
same,RLU,time 130.797 s,235.505 RLU
same,RLU,time 132.797 s,229.818 RLU
same,RLU,time 134.797 s,212.202 RLU
same,RLU,time 136.797 s,197.953 RLU
